Structures are written as SMILES.

The values below come from patent US4647564A, “Inotropic agents” (Eli Lilly and Company, priority 1986, dated 1987).

In assay [1] the test system is Ventricular contractility in the anesthetized dog. Briefly: Ventricular contractility in the anesthetized dog (i.v.). It is filed as in vivo. Particulars: Canis lupus familiaris, iv, i.v. bolus, by interpolation, read-out: ED50 (dose required to produce a peak increase in contractility of 50%). The text has this: (§1) The compounds of Formula I are particularly useful as inotropic agents due to their potency, long action of effect, and oral efficacy and are therefore useful in the treatment and prevention of heart failure. For example, the compounds of this invention were examined as to their pharmacodynamic effects on the following test systems. For comparison, 1,3-dihydro-5-(1,4,5,6-tetrahydro-6-oxo-3-pyridazinyl)-2H-indol-2-one (Compound A) and 4,4-dimethyl-1,2,3,4-tetrahydro-6-(1,4,5,6-tetrahydro-6-oxo-3-pyridazinyl)quinolin-2-one (Compound B) as taught in U.S. Pat. No. 4,258,185 (although named somewhat differently), were also tested.
Mongrel dogs of either sex ranging in weight for 7 to 14 kg were used. Anesthesia was induced with sodium pentobarbital (30 mg/kg, i.v.) and maintained with supplemental doses as required. A positive-pressure pump was used to ventilate the dogs through an endotracheal tube (18 strokes/minute, 20 ml/kg stroke^-1), and a heating pad kept the body temperature at 37°-38° C.
Femoral arterial blood pressure was measured through a polyethylene catheter filled with heparin solution (16 units/ml) and connected to a Statham pressure transducer. A strain-gauge arch sutured to the right ventricle of the heart measured cardiac contractility. Tension on the gauge was adjusted to 50 g and the gain of the recorder (Beckman dynograph) was set so that 50 g caused a 10-mm pen deflection. Cardiac contractile tension was measured as millimeters of pen deflection or grams of tension. The test compounds were administered as an i.v. bolus (2-5 ml) in a normal saline vehicle following a 30-45 minute equilibrium period. […] The maximum effects on contractility at various dose levels were determined and plotted and the dose required to produce a 50 % increase in contractility (ED50) was determined by interpolation.

The subject of assay [2] is Ventricular contractility in the conscious dog. Description: Ventricular contractility in the conscious dog (oral). As to conditions: Canis lupus familiaris, oral (gelatin capsules), by interpolation, read-out: ED50 (dose required to produce a peak increase in contractility of 50%). The assay is classed as in vivo.
Source text: as §1
Mongrel dogs of either sex weighing 15-36 kg were chronically instrumented to monitor peak systolic pressure, heart rate, left ventricular pressure and its first derivative, LVdP/dt at 60 mm of mercury. Under halothane-nitrous oxide anesthesia, a precalibrated Konigsberg P22 Pressure Transducer was implanted into the left ventricle through a stab wound at the apex. Following recovery from surgery, a minimum of two weeks was allowed to train the dogs to lie quietly for four-hour periods. This conditioning was necessary to obtain stable, reproducible results from day to day. Dogs were fasted eighteen hours before an experiment. Gross behavioral observations of animals were made throughout each study. Compounds or placebo (lactose) were administered in gelatin capsules. The maximum effects on contractility at various dose levels were determined and plotted and the dose required to produce a 50-percent increase in contractility (ED50) was determined by interpolation.

Another assay deals with Cat papillary muscles. Briefly: Positive inotropic activity in isolated cat papillary muscles. It is filed as cell-based. As to conditions: Felis catus, control = 100 percent, average of 2 to 8 muscles, read-out: Contractility of papillary muscle, peak response; for activity at 100 µM: 10^-4 M; for activity at 10 µM: 10^-5 M.
Source text: as §1
Cats of either sex were anesthetized with Metofane (1,1-difluoro-2,2-dichloroethyl methyl ether, Pittman-Moore). Their hearts were immediately removed and the papillary muscles dissected and suspended in individual organ baths. A platinum hook secured one end of the muscle to an electrode mounted in the bottom of the bath, and a silk thread attached the tendon to a Statham isometric transducer. The baths contained Krebs-Henseleit solution (36° C., bubbled with 95 percent oxygen--5 percent carbon dioxide) of the following millimolar composition: NaCl, 118; KCl, 4.5; CaCl2, 2.5; KH2 PO4, 1.1; MgSO4, 1.2; NaHCO3, 25; and glucose, 11.
A base-line tension of 1.5 g was applied to each muscle. Square-wave pulses (5.0 msec. in duration, three times threshold voltage) delivered through the hook electrode and a second electrode positioned near the top of the muscle evoked 12 contractions/minute, which were recorded on a Grass polygraph. After the muscles had equilibrated for 60 minutes, the recorder gain was adjusted so that the pen deflected 10 mm. The test compound was introduced in a solution of normal saline in an amount to bring the final concentration of the compound to 10^-5 or 10^-4 molar. Increases in contractility were tabulated as millimeters of pen deflection in excess of the baseline value. In each experiment the maximum contractility was measured. Test results are summarized in Table I and are expressed as percent of control (control=100 percent). Values are the average of results from 2 to 8 muscles.

With `CC1CC(=O)NN=C1c1ccc2c(c1)C(C)(C)C(=O)N2C` (stereo not shown) [Example 3, 1,3-Dihydro-1,3,3-trimethyl-5-(1,4,5,6-tetrahydro-4-methyl-6-oxo-3-pyridazinyl)-2H-indol-2-one], the ED50 (in general, the dose at which the effect has come halfway, by size or by number of responders) in assay [1] came to 0.005 mg/kg.
As to `O=C1CCC(c2ccc3c(c2)CC(=O)N3)=NN1` [Compound A, 1,3-dihydro-5-(1,4,5,6-tetrahydro-6-oxo-3-pyridazinyl)-2H-indol-2-one, reference compound], the ED50 in assay [1] is 0.01 mg/kg; in assay [2], 0.5 mg/kg. The activity at 100 µM in the assay with Cat papillary muscles stood at 152%. In addition, in the assay on Cat papillary muscles, the activity at 10 µM stood at 147%.
`CN1C(=O)C(C)(C)c2cc(C3=NNC(=O)CC3)ccc21` [Example 2, 1,3-Dihydro-1,3,3-trimethyl-5-(1,4,5,6-tetrahydro-6-oxo-3-pyridazinyl)-2H-indol-2-one]: the ED50 in assay [1] was 0.01 mg/kg; in assay [2] it was > 0.4 mg/kg.
Take `CC1CC(=O)NN=C1c1ccc2c(c1)C(C)(C)C(=O)N2` (stereo not shown) [Example 7, 1,3-Dihydro-3,3-dimethyl-5-(1,4,5,6-tetrahydro-4-methyl-6-oxo-3-pyridazinyl)-2H-indol-2-one]: the ED50 in assay [1] worked out at 0.0025 mg/kg; in assay [2], 0.05 mg/kg.
With `CC1C(=O)Nc2ccc(C3=NNC(=O)CC3)cc21` (stereo not shown) [Example 8, 1,3-Dihydro-3-methyl-5-(1,4,5,6-tetrahydro-6-oxo-3-pyridazinyl)-2H-indol-2-one], the ED50 in assay [1] is 0.0063 mg/kg; in assay [2] it was 0.025 mg/kg.
With `Cc1cc(C2=NNC(=O)CC2)cc2c1NC(=O)C2(C)C` [Example 4, 1,3-Dihydro-3,3,7-trimethyl-5-(1,4,5,6-tetrahydro-6-oxo-3-pyridazinyl)-2H-indol-2-one], the ED50 in assay [1] came to 0.0085 mg/kg.
In the case of `Cc1cc2c(cc1C1=NNC(=O)CC1)C(C)(C)C(=O)N2` [Example 5, 1,3-Dihydro-3,3,6-trimethyl-5-(1,4,5,6-tetrahydro-6-oxo-3-pyridazinyl)-2H-indol-2-one], the ED50 in assay [1] came to 0.02 mg/kg.
`CC1(C)CC(=O)Nc2ccc(C3=NNC(=O)CC3)cc21` [Compound B, 4,4-dimethyl-1,2,3,4-tetrahydro-6-(1,4,5,6-tetrahydro-6-oxo-3-pyridazinyl)quinolin-2-one, reference compound]: in assay [1], the ED50 came to 0.048 mg/kg. Besides, the ED50 in assay [2] was > 0.5 mg/kg. For the same molecule, in the assay with Cat papillary muscles, the activity at 100 µM was determined as 169% and the activity at 10 µM was found to be 178%.
Turning to `CC1CC(c2ccc3c(c2)C(C)(C)C(=O)N3)=NNC1=O` (stereo not shown) [Example 6, 1,3-Dihydro-3,3-dimethyl-5-(1,4,5,6-tetrahydro-5-methyl-6-oxo-3-pyridazinyl)-2H-indol-2-one], the ED50 in assay [1] is 0.021 mg/kg.
Take `CC1(C)C(=O)Nc2ccc(C3=NNC(=O)CC3)cc21` [Example 1, 1,3-Dihydro-3,3-dimethyl-5-(1,4,5,6-tetrahydro-6-oxo-3-pyridazinyl)-2H-indol-2-one]: in assay [1], the ED50 was determined as 0.005 mg/kg. The ED50 in assay [2] was determined as 0.025 mg/kg. Also, in the assay on Cat papillary muscles, the activity at 100 µM is 208% and the activity at 10 µM was found to be 202%.
